Test results reported in patent US5420335A, “Parenteral nutrients based on watersoluble glycerol bisacetoacetates” (priority 1993, dated 1995).

Experiments:
[1] = in words; cited from earlier work
[2] = Overall evaluation as a parenteral nutrient; assay type: in vivo, rat (male Sprague-Dawley); conditions: in words
Procedure: Water was available ad libitum at all times.
The vein was then ligated dorsally to the catheter. […] Body weights were measured daily.
Infusate volume, oral food intake, body weight and urinary volume and total nitrogen were monitored daily for each rat. Infusate volume and food intake were determined by weighing the appropriate container at the start and end of each 24 hr. period. Measurements were recorded between 9 and 10 AM each day. At the end of the 7th day, rats were sacrificed, and blood and liver were harvested. Plasma was separated for measurement of free fatty acids, glucose, and ketone bodies. Liver was weighed and a sample was fixed in buffered formalin for gross histology.
The data were analyzed for significance by the one-way analysis of variance with repeated measures and comparing the effect of dietary treatment on each day. […] The null hypothesis was concluded invalid if p≤0.05. The analysis of variance was computed on a SAS statistical package.

Compound | enhance the absorption of certain agents in the intestine [1] | efficacy as parenteral nutrient / energy source [2]
CC(=O)CC(=O)OCC1COC(C)(C)O1 (stereo not shown) [1,2-isopropylideneglyceryl 3-acetoacetate] | enhance the absorption of certain agents in the intestine | –
CC(=O)CC(=O)OCC(O)COC(=O)CC(C)=O [1,3-bisacetoacetylglycerol] | enhance the absorption of certain agents in the intestine | –
CC(=O)OCC1COC(C)(C)O1 (stereo not shown) [2,3-isopropylidene-1-acetate] | enhance the absorption of certain agents in the intestine | –
Partially Reduced Pentaacetoacetyl-glucose [Compound 3] | – | ineffective as parenteral nutrients
